# Reference: patent US20240382425A1 (BS BIOTECHNA SPOLKA Z OGRANICZONA ODPOWIEDZIALNOSCIA, priority 2021, published 2024)
# Tests used:
# [1] = Solubility of the deprotonated form of emetine in water; format: physicochemical
# Protocol: The total volume of titrant utilised was 1.5 mL. The precipitate was centrifuged at 6000 RPM for 20 minutes and separated from the solution. […] The precipitate was dried in a vacuum dryer at 30° C., 100 mbar pressure for 5 h and used in the next synthetic steps.
# [2] = system: MERS and SARS coronaviruses; conditions: lowest among over 290 drugs tested; cited from earlier work
smiles,measurement,setting,value
CC[C@H]1CN2CCc3cc(OC)c(OC)cc3[C@@H]2C[C@@H]1C[C@H]1NCCc2cc(OC)c(OC)cc21 [emetine],solubility,[1],1790 µg/mL
same,EC50,[2],< 20 nM
